Source: patent publication US6350885B1, “Tricyclic heteroaromatics and their derivatives as inhibitors of matrix metalloproteinases” (Warner-Lambert Company, priority 1998, dated 2002)

Legend:
[1] = molecular target: T1, MMP-13CD (collagenase-3 catalytic domain) (Homo sapiens, UniProt P45452); assay: MMP inhibition, thiopeptolide substrate assay; format: biochemical; settings: thiopeptolide substrate Ac-Pro-Leu-Gly-thioester-Leu-Leu-Gly-OEt; catalytic domain expressed in Escherichia coli from a synthetic gene
T1 construct: MMP-13CD (collagenase-3 catalytic domain); made in house; host or cells: Escherichia coli
Method: (§1) Experiments were carried out with the full-length and catalytic domains of the proteinases. […] IC50 values were determined using a thiopeptolide substrate, Ac-Pro-Leu-Gly-thioester-Leu-Leu-Gly-OEt (Ye Q.-Z., Johnson L. L., Hupe D. J., and Baragi V., “Purification and Characterization of the Human Stromelysin Catalytic Domain Expressed in Escherichia coli,” Biochemistry, 1992;31:11231-11235; Ye Q.-Z., Johnson L. L., Yu A. E., and Hupe D., “Reconstructed 19 kDa catalytic domain of gelatinase A is an active proteinase,” Biochemistry, 1995;34:4702-4708.) MMP-13CD was expressed from a synthetic gene and purified from Escherichia coli cell culture according to a previously described method (Ye Q.-Z., Johnson L. L., and Baragi V., “Gene synthesis and expression in E. coli for PUMP, a human matrix metalloproteinase,” Biochemical and Biophysical Research Communications, 1992; 186:143-149).

[2] = molecular target: T2, MMP-14CD (membrane-type MMP-1) (Homo sapiens, UniProt P50281); assay: MMP inhibition, thiopeptolide substrate assay; format: biochemical; settings: thiopeptolide substrate Ac-Pro-Leu-Gly-thioester-Leu-Leu-Gly-OEt; catalytic domain
T2 construct: Experiments were carried out with the full-length and catalytic domains of the proteinases
Method: as §1

[3] = molecular target: T3, MMP-1FL (collagenase-1 full length enzyme) (Homo sapiens, UniProt P03956); assay: MMP inhibition, thiopeptolide substrate assay; format: biochemical; settings: thiopeptolide substrate Ac-Pro-Leu-Gly-thioester-Leu-Leu-Gly-OEt
T3 construct: MMP-1FL (collagenase-1 full length enzyme)
T3 sequence (P03956 100-469): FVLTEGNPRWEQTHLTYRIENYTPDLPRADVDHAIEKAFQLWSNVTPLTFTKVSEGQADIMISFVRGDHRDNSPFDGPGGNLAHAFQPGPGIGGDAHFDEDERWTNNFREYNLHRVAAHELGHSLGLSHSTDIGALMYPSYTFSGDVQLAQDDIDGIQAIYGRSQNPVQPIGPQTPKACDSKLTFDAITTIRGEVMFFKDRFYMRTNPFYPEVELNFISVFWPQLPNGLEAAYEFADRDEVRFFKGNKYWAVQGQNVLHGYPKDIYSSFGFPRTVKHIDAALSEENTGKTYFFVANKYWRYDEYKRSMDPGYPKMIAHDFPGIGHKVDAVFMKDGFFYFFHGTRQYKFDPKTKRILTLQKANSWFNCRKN
Method: as §1

[4] = molecular target: MMP-2CD (gelatinase A catalytic domain) (Homo sapiens, UniProt P08253); assay: MMP inhibition, thiopeptolide substrate assay; format: biochemical; settings: thiopeptolide substrate Ac-Pro-Leu-Gly-thioester-Leu-Leu-Gly-OEt
Method: as §1

[5] = molecular target: T4, MMP-2FL (gelatinase A full length enzyme) (Homo sapiens, UniProt P08253); assay: MMP inhibition, thiopeptolide substrate assay; format: biochemical; settings: thiopeptolide substrate Ac-Pro-Leu-Gly-thioester-Leu-Leu-Gly-OEt
T4 construct: MMP-2FL (gelatinase A full length enzyme)
T4 sequence (P08253 110-660): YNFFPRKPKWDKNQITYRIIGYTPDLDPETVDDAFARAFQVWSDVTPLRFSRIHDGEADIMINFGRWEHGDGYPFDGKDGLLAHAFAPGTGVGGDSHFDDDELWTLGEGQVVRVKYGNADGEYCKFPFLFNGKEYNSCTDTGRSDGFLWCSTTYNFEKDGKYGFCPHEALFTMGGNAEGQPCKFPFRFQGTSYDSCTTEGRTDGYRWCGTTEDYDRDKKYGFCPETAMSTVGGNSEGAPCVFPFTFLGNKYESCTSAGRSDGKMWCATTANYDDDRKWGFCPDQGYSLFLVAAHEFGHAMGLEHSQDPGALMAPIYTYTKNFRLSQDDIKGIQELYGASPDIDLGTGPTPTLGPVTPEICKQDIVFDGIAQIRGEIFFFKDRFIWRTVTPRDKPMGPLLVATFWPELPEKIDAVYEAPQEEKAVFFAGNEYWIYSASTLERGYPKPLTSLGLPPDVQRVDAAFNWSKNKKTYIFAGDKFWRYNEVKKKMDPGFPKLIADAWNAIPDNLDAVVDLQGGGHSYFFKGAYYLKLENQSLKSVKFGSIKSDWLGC
Method: as §1

[6] = molecular target: T5, MMP-3CD (stromelysin-1 catalytic domain) (Homo sapiens, UniProt P08254); assay: MMP inhibition, thiopeptolide substrate assay; format: biochemical; settings: thiopeptolide substrate Ac-Pro-Leu-Gly-thioester-Leu-Leu-Gly-OEt
T5 construct: MMP-3CD (stromelysin-1 catalytic domain)
Method: as §1

[7] = molecular target: T6, MMP-7FL (matrilysin full length enzyme) (Homo sapiens, UniProt P09237); assay: MMP inhibition, thiopeptolide substrate assay; format: biochemical; settings: thiopeptolide substrate Ac-Pro-Leu-Gly-thioester-Leu-Leu-Gly-OEt
T6 construct: MMP-7FL (matrilysin full length enzyme)
T6 sequence (P09237 95-267): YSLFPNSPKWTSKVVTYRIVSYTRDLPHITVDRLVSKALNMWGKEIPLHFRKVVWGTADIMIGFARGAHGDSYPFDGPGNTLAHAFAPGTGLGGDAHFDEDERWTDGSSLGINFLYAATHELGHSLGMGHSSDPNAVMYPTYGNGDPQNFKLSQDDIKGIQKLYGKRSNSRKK
Method: as §1

[8] = molecular target: T7, MMP-9-FL (gelatinase B full length enzyme) (Homo sapiens, UniProt P14780); assay: MMP inhibition, thiopeptolide substrate assay; format: biochemical; settings: thiopeptolide substrate Ac-Pro-Leu-Gly-thioester-Leu-Leu-Gly-OEt
T7 construct: MMP-9-FL (gelatinase B full length enzyme)
Method: as §1

T5 sequence (P08254 100-272 limits assumed): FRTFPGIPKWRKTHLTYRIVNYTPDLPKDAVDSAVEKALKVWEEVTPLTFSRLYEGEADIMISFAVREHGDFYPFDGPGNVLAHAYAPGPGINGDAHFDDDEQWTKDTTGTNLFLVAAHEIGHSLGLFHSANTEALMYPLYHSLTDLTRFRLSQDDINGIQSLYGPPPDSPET
Chain of MMP-2CD (gelatinase A catalytic domain) (P08253 with tags, fused parts or gaps DEL222-396): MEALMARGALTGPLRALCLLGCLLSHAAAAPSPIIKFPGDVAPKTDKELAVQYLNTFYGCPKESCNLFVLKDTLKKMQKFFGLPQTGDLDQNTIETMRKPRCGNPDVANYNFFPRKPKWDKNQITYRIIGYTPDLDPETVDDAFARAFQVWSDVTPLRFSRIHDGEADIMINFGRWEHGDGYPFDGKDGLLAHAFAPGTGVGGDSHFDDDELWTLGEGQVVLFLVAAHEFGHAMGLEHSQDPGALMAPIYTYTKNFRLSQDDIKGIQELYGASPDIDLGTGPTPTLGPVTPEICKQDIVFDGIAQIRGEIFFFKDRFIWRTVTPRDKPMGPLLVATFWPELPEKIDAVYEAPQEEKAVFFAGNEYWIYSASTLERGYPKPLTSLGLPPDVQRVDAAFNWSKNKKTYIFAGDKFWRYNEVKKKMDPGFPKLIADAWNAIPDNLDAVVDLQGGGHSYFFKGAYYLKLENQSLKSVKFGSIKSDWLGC
T7 sequence (P14780 94-707): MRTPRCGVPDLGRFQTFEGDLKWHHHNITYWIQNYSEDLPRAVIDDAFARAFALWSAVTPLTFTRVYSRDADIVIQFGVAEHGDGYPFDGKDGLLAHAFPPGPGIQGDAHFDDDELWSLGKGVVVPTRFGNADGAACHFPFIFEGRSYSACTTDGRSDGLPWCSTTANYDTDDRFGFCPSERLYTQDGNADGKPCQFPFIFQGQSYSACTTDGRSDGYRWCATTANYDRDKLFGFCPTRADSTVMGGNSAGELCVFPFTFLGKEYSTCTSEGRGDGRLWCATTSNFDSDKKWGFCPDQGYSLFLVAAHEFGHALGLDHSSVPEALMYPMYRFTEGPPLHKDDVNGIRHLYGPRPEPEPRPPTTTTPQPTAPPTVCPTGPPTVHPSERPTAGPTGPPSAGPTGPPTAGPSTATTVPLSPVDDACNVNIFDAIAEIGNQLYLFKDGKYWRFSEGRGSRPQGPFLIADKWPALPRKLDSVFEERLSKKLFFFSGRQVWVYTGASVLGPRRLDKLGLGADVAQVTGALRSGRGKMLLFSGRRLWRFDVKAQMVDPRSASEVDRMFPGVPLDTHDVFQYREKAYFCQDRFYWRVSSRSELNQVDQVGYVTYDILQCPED

IC50 [1] [µM] | IC50 [2] [µM] | IC50 [3] [µM] | IC50 [4] [µM] | IC50 [5] [µM] | IC50 [6] [µM] | IC50 [7] [µM] | IC50 [8] [µM] | melting point [°C] | SMILES
1.42 | 2 | 31 | 0.0585 | 0.945 | 0.315 | 86 | 14 |  | CN1C(=O)N(CC(CC(=O)c2ccc3c4c(oc3c2)CCCC4)C(=O)O)C(=O)C1(C)C (stereo not shown) [Example 3, 4-Oxo-4-(6,7,8,9-tetrahydro-dibenzofuran-3-yl)-2-(3,4,4-trimethyl-2,5-dioxo-imidazolidin-1-ylmethyl)-butyric acid]
9.7 | 0.82 | 67 | 0.096 | 0.445 | 0.13 | 84 |  |  | O=C(CC(CCCc1ccccc1)C(=O)O)c1ccc2c3c(oc2c1)CCCC3 (stereo not shown) [Example 2, 2-[2-Oxo-2-(6,7,8,9-tetrahydro-dibenzofuran-3-yl)-ethyl]-5-phenyl-pentanoic acid]
1.21 | 0.24 |  | 0.0183 | 0.0595 | 0.114 |  | 32 | 164 | O=C(O)CCC(=NO)c1ccc2c3c(oc2c1)CCCC3 [Example 1, 4-Hydroxyimino4-(6,7,8,9-tetrahydro-dibenzofuran-3-yl)-butyric acid]
